The values below are quoted from earlier work in patent USRE39705E1, “Method of treating glutathione deficient mammals” (Vit-Immune, L.C., priority 1998, dated 2007).

Experiment in data set [1]: not given
The source holds these as a separate data set.

`O=C(O)CCCCC1CCSS1` (stereo not drawn) [Alpha lipoic acid, alpha lipoic acid]: where the note is “in vitro and in vivo (literature)”, the intracellular reduced glutathione entry was “substantial increase”.

Regarding `N[C@@H](CS)C(=O)O` [Example 1-cysteine, 1-cysteine], the GSH levels entry (substituted into the diet in place of the total protein allowance) is “effective in raising GSH levels”.

As to `NC(=O)CC[C@H](N)C(=O)O` [L-glutamine], the liver glutathione result (after lethal hepatic injury) was “preserve liver glutathione”.

For the compound `N[C@@H](CCC(=O)N[C@@H](CS)C(=O)NCC(=O)O)C(=O)O` [glutathione, γ-L-Glutamyl-L-cysteinylglycine], in data set [1], the “absorption of oral supplementation by the mammal's cells” value is given as “not well absorbed”. In data set [1] (oral), the “replenishment of intracellular glutathione losses” value is listed as “does not replenish losses inside cells”.
